Laboratory results published in ChEMBL document CHEMBL3885881, “DrugMatrix”.

Species on record: Rattus norvegicus
Test: DrugMatrix - Regimen: Daily Repeat
Type: toxicity, organism-based, Sprague-Dawley
Set-up: regimen Daily Repeat, gender Male, age 6-8 weeks
Conditions: in vivo, po, route oral GAVAGE, vehicle .5 % CMC; for ABSOLUTE EOSINOPHIL / ABSOLUTE LYMPHOCYTE / ABSOLUTE MONOCYTE / ABSOLUTE SEGMENTED NEUTROPHIL / BASOPHIL / EOSINOPHIL / ERYTHROCYTE COUNT / HEMATOCRIT / HEMOGLOBIN / LEUKOCYTE COUNT / LYMPHOCYTE / MEAN CORPUSCULAR HEMOGLOBIN CONCENTRATION / MEAN CORPUSCULAR VOLUME / MONOCYTE / NEUTROPHIL / NUCLEATED RED BLOOD CELLS / PLATELET COUNT / ABSOLUTE BASOPHIL: tissue Blood; for ALANINE AMINOTRANSFERASE / ALBUMIN / ALKALINE PHOSPHATASE / BLOOD UREA NITROGEN / CARBON DIOXIDE / CHLORIDE / CHOLESTEROL / CREATINE PHOSPHOKINASE / CREATININE / GLUCOSE / LACTATE DEHYDROGENASE / LIPASE / PHOSPHORUS / POTASSIUM / SODIUM / TOTAL BILIRUBIN / TOTAL PROTEIN: tissue Plasma
[1] = 60 mg/kg, 120 h, dose level High, time 5 day
[2] = […], 72 h, dose 1.5 mg/Kg, dose level Low, time 3 day
[3] = […], 120 h, dose 1.5 mg/Kg, dose level Low, time 5 day

Compound: CO[C@H]1C[C@@H]2CC[C@@H](C)[C@@](O)(O2)C(=O)C(=O)N2CCCC[C@H]2C(=O)O[C@H]([C@H](C)C[C@@H]2CC[C@@H](O)[C@H](OC)C2)CC(=O)[C@H](C)/C=C(\C)[C@@H](O)[C@@H](OC)C(=O)[C@H](C)C[C@H](C)/C=C/C=C/C=C/1C [SIROLIMUS]
- ABSOLUTE EOSINOPHIL [1]: 0 CELLS/uL
- ABSOLUTE LYMPHOCYTE [1]: 6680.33 CELLS/uL
- ABSOLUTE MONOCYTE [1]: 49.67 CELLS/uL
- ABSOLUTE SEGMENTED NEUTROPHIL [1]: 670 CELLS/uL
- BASOPHIL [1]: 0%
- EOSINOPHIL [1]: 0%
- ERYTHROCYTE COUNT [1]: 6.63 x10E6/uL
- HEMATOCRIT [1]: 40%
- HEMOGLOBIN [1]: 15.77 G/DL
- LEUKOCYTE COUNT [1]: 7.4 x10E3/uL
- LYMPHOCYTE [1]: 90.33%
- MEAN CORPUSCULAR HEMOGLOBIN CONCENTRATION [1]: 39.4 G/DL
- MEAN CORPUSCULAR VOLUME [1]: 60.43 fL
- MONOCYTE [1]: 0.67%
- NEUTROPHIL [1]: 9%
- NUCLEATED RED BLOOD CELLS [1]: 0 /100WBC
- PLATELET COUNT [1]: 709.33 x10E3/uL
- ALANINE AMINOTRANSFERASE [1]: 49.33 u/L
- ALBUMIN [1]: 4.2 G/DL
- ALKALINE PHOSPHATASE [1]: 311.67 u/L
- BLOOD UREA NITROGEN [1]: 20.67 mg/dL
- CARBON DIOXIDE [1]: 28.33 mmol/L
- CHLORIDE [1]: 99.67 MEQ/L
- CHOLESTEROL [1]: 81.67 mg/dL
- CREATINE PHOSPHOKINASE [1]: 479 u/L
- CREATININE [1]: 0.24 mg/dL
- GLUCOSE [1]: 202.33 mg/dL
- LACTATE DEHYDROGENASE [1]: 231.33 u/L
- LIPASE [1]: 9.67 u/L
- PHOSPHORUS [1]: 10.43 mg/dL
- POTASSIUM [1]: 4.97 MEQ/L
- SODIUM [1]: 145.27 MEQ/L
- TOTAL BILIRUBIN [1]: 0.2 mg/dL
- TOTAL PROTEIN [1]: 6.23 G/DL
- ABSOLUTE BASOPHIL [2]: 0 CELLS/uL
- ABSOLUTE EOSINOPHIL [2]: 267 CELLS/uL
- ABSOLUTE LYMPHOCYTE [2]: 13791 CELLS/uL
- ABSOLUTE MONOCYTE [2]: 267 CELLS/uL
- ABSOLUTE SEGMENTED NEUTROPHIL [2]: 1575 CELLS/uL
- BASOPHIL [2]: 0%
- EOSINOPHIL [2]: 1.67%
- ERYTHROCYTE COUNT [2]: 5.63 x10E6/uL
- HEMATOCRIT [2]: 36.33%
- HEMOGLOBIN [2]: 13.8 G/DL
- LEUKOCYTE COUNT [2]: 15.9 x10E3/uL
- LYMPHOCYTE [2]: 87%
- MEAN CORPUSCULAR HEMOGLOBIN CONCENTRATION [2]: 38 G/DL
- MEAN CORPUSCULAR VOLUME [2]: 64.5 fL
- MONOCYTE [2]: 1.67%
- NEUTROPHIL [2]: 9.67%
- NUCLEATED RED BLOOD CELLS [2]: 0 /100WBC
- PLATELET COUNT [2]: 1156 x10E3/uL
- ALANINE AMINOTRANSFERASE [2]: 52.33 u/L
- ALBUMIN [2]: 4.23 G/DL
- ALKALINE PHOSPHATASE [2]: 361.33 u/L
- BLOOD UREA NITROGEN [2]: 17.33 mg/dL
- CARBON DIOXIDE [2]: 27.33 mmol/L
- CHLORIDE [2]: 99 MEQ/L
- CHOLESTEROL [2]: 79.33 mg/dL
- CREATINE PHOSPHOKINASE [2]: 205.33 u/L
- CREATININE [2]: 0.21 mg/dL
- GLUCOSE [2]: 162 mg/dL
- LACTATE DEHYDROGENASE [2]: 201.67 u/L
- LIPASE [2]: 10 u/L
- PHOSPHORUS [2]: 12.33 mg/dL
- POTASSIUM [2]: 6.49 MEQ/L
- SODIUM [2]: 144 MEQ/L
- TOTAL BILIRUBIN [2]: 0.2 mg/dL
- TOTAL PROTEIN [2]: 6 G/DL
- ABSOLUTE BASOPHIL [3]: 0 CELLS/uL
- ABSOLUTE EOSINOPHIL [3]: 0 CELLS/uL
- ABSOLUTE LYMPHOCYTE [3]: 12718.33 CELLS/uL
- ABSOLUTE MONOCYTE [3]: 96 CELLS/uL
- ABSOLUTE SEGMENTED NEUTROPHIL [3]: 1619 CELLS/uL
- BASOPHIL [3]: 0%
- EOSINOPHIL [3]: 0%
- ERYTHROCYTE COUNT [3]: 5.45 x10E6/uL
- HEMATOCRIT [3]: 33.87%
- HEMOGLOBIN [3]: 13.8 G/DL
- LEUKOCYTE COUNT [3]: 14.43 x10E3/uL
- LYMPHOCYTE [3]: 87.67%
- MEAN CORPUSCULAR HEMOGLOBIN CONCENTRATION [3]: 40.77 G/DL
- MEAN CORPUSCULAR VOLUME [3]: 62.2 fL
- MONOCYTE [3]: 0.67%
- NEUTROPHIL [3]: 11.67%
- NUCLEATED RED BLOOD CELLS [3]: 0 /100WBC
- PLATELET COUNT [3]: 1286.33 x10E3/uL
- ALANINE AMINOTRANSFERASE [3]: 92.33 u/L
- ALBUMIN [3]: 3.8 G/DL
- ALKALINE PHOSPHATASE [3]: 328.67 u/L
- BLOOD UREA NITROGEN [3]: 17.33 mg/dL
- CARBON DIOXIDE [3]: 20.33 mmol/L
- CHLORIDE [3]: 99 MEQ/L
- CHOLESTEROL [3]: 66.67 mg/dL
- CREATINE PHOSPHOKINASE [3]: 1089 u/L
- CREATININE [3]: 0.25 mg/dL
- GLUCOSE [3]: 251.33 mg/dL
- LACTATE DEHYDROGENASE [3]: 725.33 u/L
- LIPASE [3]: 11 u/L
- PHOSPHORUS [3]: 14.07 mg/dL
- POTASSIUM [3]: 6.17 MEQ/L
- SODIUM [3]: 142.93 MEQ/L
- TOTAL BILIRUBIN [3]: 0.2 mg/dL
- TOTAL PROTEIN [3]: 5.43 G/DL
